Reference: article PMC7853623, “Dose- and time-dependent tolerability and efficacy of organo-osmium complex FY26 and its tissue pharmacokinetics in hepatocarcinoma-bearing mice” (Metallomics: Integrated Biometal Science, 2020)

Experiments:
[1] = set-up: method as in PMID 20977192; details: 24 h incubation at 37°C, pH 7.4 ref 12; cited from earlier work
[2] = set-up: method as in ref 22 = [22]; 22. Abraham K. , In vitro and in vivo chronopharmacology of a new generation of an organometallic anticancer drug complex . Ph.D. thesis , University of Warwick , Coventry, UK , 2018 .; details: mice ref 22; cited from earlier work
[3] = Body weight change after a single ip dose (Experiment 5); format: in vivo, C57Bl/6 mice; details: single ip dose 5, 10 or 20 mg/kg (FY26⋅Cl), 24 and 48 h, all mice
Description: (§1) Experiment 5 determined FY26⋅Cl uptake in mouse tumour and liver. Hepa1–6-bearing mice were randomly assigned to either treatment or control groups. They received a single ip injection of 5, 10, or 20 mg/kg of FY26⋅Cl or 0.1 M PBS (vehicle) at ZT6 (Table 1). The mice from pre-set subgroups were culled at 6, 24, or 48 h after injection. The subcutaneous tumours in both flanks, as well as liver, spleen, one kidney, an ileum, and a colon segment and brain were sampled and stored at −80°C.
(§2) Body weight data were expressed as % body weight measured on the first treatment day. Tumour weights for individually treated mice were expressed as % of the median control values, in order to determine % inhibition. Mean and standard error or median and interquartiles were computed for the different treatment groups and experimental conditions, i.e. drug timing and day of assessment. Groups were compared using parametric or non-parametric ANOVAs, respectively.

[4] = system: Hepa1–6-Per2-luc hepatocarcinoma tumours; assay: Tumour volume after a single ip dose (Experiment 5); format: in vivo, C57Bl/6 mice; details: single ip dose 5, 10 or 20 mg/kg (FY26⋅Cl)
Description: (§3) The mice, aged 8–10 weeks, were anesthetized under isoflurane and Hepa1–6-Per2-luc cells were injected subcutaneously in both postero-lateral flanks of each mouse. Mice were then inspected and weighed daily until experiment completion. Tumour sites were inspected daily until tumours became palpable and amenable to daily measurements of perpendicular diameters using callipers. Measurements were always taken at the same circadian time.
(§4) Mean daily tumour weight per mouse was calculated as the average volume of the right and left flank tumours according to (L × W^2)/2, where L is the larger and W the smaller perpendicular diameter, and 1 cm^3 corresponds to 1 g. Mice with an estimated tumour weight exceeding 10% of their body weight or those in poor general condition or loosing >15% of their starting body weight were euthanized, in compliance with our Home Office Project Licence specifications approved by the Animals in Science Committee and Animal Welfare and Ethical Review Body.
as §1, with “The subcutaneous tumours in both flanks, as well as liver, spleen, one kidney, an ileum, and a colon segment and brain were sampled and stored at −80°C.” left out

[5] = Tolerability (survival, body weight) in Hepa1–6-bearing C57Bl/6 mice (Experiments 3 and 4); format: in vivo; details: Experiment 4 (FY26⋅Cl)
Description: (§5) Male CD1-Foxn1^nu or C57Bl/6 (B6) mice aged 5–10 weeks (Janvier, Le Genest St Isle, France) were housed in groups of three to four mice per cage in temperature-controlled (23 ± 1°C), ventilated (100 ± 10 l/min), and light-tight chronobiological animal facilities (Eurobioconcept, Bonneuil s/Marne, France). They were synchronized with an alternation of 12 h of light (L) and 12 h of darkness (D) (LD12:12), with light starting at 07:00, and had ad libitum access to food and water throughout all the experiments. In line with convention, onset of light and that of darkness are referred to as Zeitgeber time 0 (ZT0) and ZT12, respectively. After one or more weeks on this regimen and on the day prior to tumour inoculation, both flanks of each B6 mouse were shaved using clippers.
as §3, §4
Experiment 3 aimed at assessing the efficacy and tolerability of the more soluble formulation of FY26⋅Cl in Hepa1–6-bearing C57Bl/6 mice. The mice were randomized to receive vehicle or FY26⋅Cl, at a cumulative dose of 60 mg/kg. Treated mice received ip injections of 20 mg/kg of FY26⋅Cl at ZT6 12, 14, and 17 days after tumour inoculation. Control mice received ip vehicle on the same days.
Experiment 4 aimed at confirming efficacy and optimizing timing and scheduling of the same cumulative dose of 60 mg/kg of FY26⋅Cl. Mice were randomized to receive either vehicle or FY26⋅Cl as four injections of 15 mg/kg at ZT6 or ZT18 on days 11, 14, 17, and 21.
For Experiments 1 and 2, FY26⋅PF6 was diluted in the vehicle, composed of 1% Tween 80 (Sigma-Aldrich, Gillingham, UK), 5% DMSO (Corning, New York, USA) and 94% of 0.9% saline (Prep room, Life Sciences, University of Warwick) under laminar flow. FY26⋅PF6 concentration was confirmed with ICP-MS. For Experiments 3–5, using FY26⋅Cl, a stock solution of 50 mg/ml FY26⋅Cl was prepared in 0.9% saline on the day of injection and diluted as required; the vehicle consisted of 0.9% saline.
as §2

[6] = Comparative maximum aqueous solubility study (ICP-OES); format: physicochemical; details: doubly deionized water, 24 h shaking, ambient 18–20°C, mean ± SD of N = 3
Description: One to five milligrams of FY26⋅PF6 or FY26⋅I, and 180 mg of FY26⋅Cl were dispensed into Falcon tubes in triplicates, then 1 ml of doubly deionized water (DDIW) was added. The Falcon tubes were placed on a Vibrax VXB basic shaker (Sigma-Aldrich, Dorset, UK) for 24 h at a speed of […] (ambient temperature 18–20°C), and were checked at intervals (further solids were added if total saturation appeared to occur). The samples were filtered through syringe filters (PTFE, 0.45 µm, 4 mm) to remove any undissolved solids. The concentrations of Os in the solutions were measured using inductively coupled plasma-optical emission spectroscopy (ICP-OES) (Agilent, Stockport, UK).
Analyses of FY26 solutions were carried out on a Perkin-Elmer (optical emission spectrometer) Optima 5300 DV instrument. All samples and standards were prepared fresh on the day in DDIW with distilled HNO3 (3.2%), thiourea (5 mM), and ascorbic acid (0.1 g/l). The osmium standard was diluted to the following concentrations for the calibration curve: 0, 25, 50, 100, 200, 400, 600, 800, and 1000 ppb. The samples were diluted by serial dilutions of typically 1 in 10 until their concentrations fitted within the calibration range and % total dissolved solids were below 0.2%. Samples were prepared in triplicates and the Os optical emissions at 228.226 and 225.585 nm were detected and integrated.

[7] = system: 809 cancer cell line screen; set-up: method as in PMID 26162681; details: on average, 809 cancer cell lines ref 18; cited from earlier work
[8] = Tolerability in Hepa1–6-bearing nude mice (Experiments 1 and 2); format: in vivo, CD1-Foxn1^nu mice
Description: as §5, §3, §4
Experiment 1 aimed at the determination of a therapeutic dose of the less soluble FY26⋅PF6 formulation. […]
(§6) Body weight data were expressed as % body weight measured on the first treatment day. Tumour weights for individually treated mice were expressed as % of the median control values, in order to determine % inhibition. […]

[9] = system: A2780 ovarian cancer cells over MRC-5 fibroblasts; set-up: method as in PMID 26397305; details: applied synergistically with L-buthionine sulfoximine (L-BSO) ref 19; cited from earlier work
[10] = system: Hepa1–6 cells; set-up: method as in ref 21, 22 = [21]; 21. Abraham K. , Dallmann R. , Ballesta A. , Romero-Canelon I. , Sadler P. J. , Lévi F. A. , In v itro circadian synchronisation of mouse hepatocarcinoma cells with 24 h temperature cycles uncovers in || [22]; 22. Abraham K. , In vitro and in vivo chronopharmacology of a new generation of an organometallic anticancer drug complex . Ph.D. thesis , University of Warwick , Coventry, UK , 2018 .; details: Hepa1–6 cells synchronized with a 24-h periodic temperature cycle ref 21, 22; cited from earlier work
[11] = system: A2780 cells; set-up: method as in PMID 26162681; details: previously reported ref 18; cited from earlier work
[12] = system: HCT-116 human colon cancer xenografts; set-up: method as in ref 13 = [13]; 13. Shnyder S. D. , Fu Y. , Habtemariam A. , van Rijt S. H. , Cooper P. A. , Loadman P. M. , Sadler P. J. , Anti-colorectal cancer activity of an organometallic osmium arene azopyridine complex , Med.; details: HCT-116 xenografts in mice ref 13; cited from earlier work
[13] = system: Hepa1–6-Per2-luc hepatocarcinoma tumours; assay: Antitumour efficacy in Hepa1–6-bearing nude mice (Experiments 1 and 2); format: in vivo, CD1-Foxn1^nu mice
Description: as §5
Mouse hepatocarcinoma (Hepa1–6, ATCC® CRL-1830™) was kindly provided by S. Dulong (INSERM U935, Villejuif, France), following their stable transfection with the Per2-luc [pLV7-Bsd-P(Per2)-dLuc] reporter constructs within the C5SYS ERASYSBIO+ project (FP7). Mouse Hepa1–6-Per2-luc cells were cultured in 15-cm Petri dishes until they reached 80% confluency. On the day of tumour inoculation, the cells were trypsinized and resuspended at a concentration of 10^6 cells/100 µl in PBS solution alone (Experiments 1 and 2) or with 1:1 MatriGel™ (Corning, Flintshire, UK) (Experiments 3–5) and kept on ice until injected.
as §3, §4
Experiment 1 aimed at the determination of a therapeutic dose of the less soluble FY26⋅PF6 formulation. Hepa1–6-bearing nude mice were randomly assigned to be injected intraperitoneally (ip) with vehicle (controls), or 40, 60, or 80 mg/kg/injection of FY26⋅PF6 at ZT6 (in the middle of the light span) every other day for 12 days (Table 1).
Experiment 2 aimed at assessing whether FY26⋅PF6 circadian timing would influence toxicity or efficacy in the nude mouse model. The animals were randomly assigned to receive ip vehicle or FY26⋅PF6 (50 mg/kg/injection) at ZT6 or at ZT18 (four controls and six treated mice per ZT) every other day for 11 days (six injections; cumulative dose, 300 mg/kg). […]
as §6

[14] = set-up: method as in PMID 9144445; details: cisplatin in BSO-treated mice ref 36; cited from earlier work

## CN(C)c1ccc(N=Nc2ccccn2)cc1.Cc1ccc(C(C)C)cc1.[I-].[Os+2] [FY26, [Os^II(ɳ^6-p-cym)(PhAzPy-NMe2)I]^+]
[1]
  hydrolysis in aqueous solution: does not readily hydrolyse
[2]
  best-tolerated dosing time: near the middle of the light span
[3]
  body weight changes: < 5%
[4]
  changes in tumour volumes: No changes
[5]; 15 mg/kg ip × 4, ZT18 versus ZT6
  body-weight loss according to dosing time: clearly worse at ZT18
[5]; 15 mg/kg ip × 4 at ZT6
  survival rate: 60%
[5]; 15 mg/kg ip × 4 at ZT18
  survival rate: 30%

## CN(C)c1ccc(N=Nc2ccccn2)cc1.Cc1ccc(C(C)C)cc1.[I-].[I-].[Os+2] [FY26⋅I]
[6]
  maximum aqueous solubility: 1.29 (±0.01) mM

## CN(C)c1ccc(N=Nc2ccccn2)cc1.Cc1ccc(C(C)C)cc1.F[P-](F)(F)(F)(F)F.[I-].[Os+2] [FY26⋅PF6, [Os^II(ɳ^6-p-cym)(PhAzPy-NMe2)I]PF6]
[7]
  activity relative to cisplatin: 49 times
[8]; Experiment 1, 80 mg/kg/injection, all mice euthanized after up to five injections (cumulative 400 mg/kg)
  toxicity of the higher dose: clearly too toxic
[8]; Experiment 1, 40, 60 or 80 mg/kg/injection ip at ZT6
  body weight loss dose–response: linear dose–response relation
[8]; Experiment 2, 50 mg/kg/injection ip
  body-weight loss at ZT6 as compared to ZT18: less pronounced
[9]
  selectivity towards A2780 over MRC-5 fibroblasts: up to 64 times
[10]
  variation of IC50 according to timing of in vitro drug exposure: 40%
[11]
  ROS induction: did induce an increase in ROS
  induction of apoptosis: did not induce apoptosis
[12]
  effect on xenograft growth: capable of delaying the growth
[13]; Experiment 1, 40 mg/kg/injection ip at ZT6 every other day
  tumour inhibition efficacy ranking: intermediate
[13]; Experiment 1, 60 mg/kg/injection ip at ZT6 every other day
  tumour inhibition efficacy ranking: least
[13]; Experiment 1, 80 mg/kg/injection ip at ZT6 every other day
  tumour inhibition efficacy ranking: highest
[13]; Experiment 2, 50 mg/kg/injection ip, ZT6 versus ZT18
  efficacy according to dosing time: slightly better efficacy at ZT6
[13]; Experiment 2, 50 mg/kg/injection ip, after the sixth dose
  tumour growth: slowed down transiently
[6]
  maximum aqueous solubility: 0.0201 (±0.0007) mM

## N.N.[Cl][Pt][Cl] [cisplatin]
[14]
  reduction in average survival rate: 5.7 fold
